These results are taken from ChEMBL document CHEMBL1137374, “Discovery of 6-N,N-bis(2,2,2-trifluoroethyl)amino- 4-trifluoromethylquinolin-2(1H)-one as a novel selective androgen receptor modulator” (J Med Chem, 2006).

Test [1] has as its target T1, Androgen receptor (Homo sapiens, UniProt P10275).
T1 sequence (P10275 whole entry): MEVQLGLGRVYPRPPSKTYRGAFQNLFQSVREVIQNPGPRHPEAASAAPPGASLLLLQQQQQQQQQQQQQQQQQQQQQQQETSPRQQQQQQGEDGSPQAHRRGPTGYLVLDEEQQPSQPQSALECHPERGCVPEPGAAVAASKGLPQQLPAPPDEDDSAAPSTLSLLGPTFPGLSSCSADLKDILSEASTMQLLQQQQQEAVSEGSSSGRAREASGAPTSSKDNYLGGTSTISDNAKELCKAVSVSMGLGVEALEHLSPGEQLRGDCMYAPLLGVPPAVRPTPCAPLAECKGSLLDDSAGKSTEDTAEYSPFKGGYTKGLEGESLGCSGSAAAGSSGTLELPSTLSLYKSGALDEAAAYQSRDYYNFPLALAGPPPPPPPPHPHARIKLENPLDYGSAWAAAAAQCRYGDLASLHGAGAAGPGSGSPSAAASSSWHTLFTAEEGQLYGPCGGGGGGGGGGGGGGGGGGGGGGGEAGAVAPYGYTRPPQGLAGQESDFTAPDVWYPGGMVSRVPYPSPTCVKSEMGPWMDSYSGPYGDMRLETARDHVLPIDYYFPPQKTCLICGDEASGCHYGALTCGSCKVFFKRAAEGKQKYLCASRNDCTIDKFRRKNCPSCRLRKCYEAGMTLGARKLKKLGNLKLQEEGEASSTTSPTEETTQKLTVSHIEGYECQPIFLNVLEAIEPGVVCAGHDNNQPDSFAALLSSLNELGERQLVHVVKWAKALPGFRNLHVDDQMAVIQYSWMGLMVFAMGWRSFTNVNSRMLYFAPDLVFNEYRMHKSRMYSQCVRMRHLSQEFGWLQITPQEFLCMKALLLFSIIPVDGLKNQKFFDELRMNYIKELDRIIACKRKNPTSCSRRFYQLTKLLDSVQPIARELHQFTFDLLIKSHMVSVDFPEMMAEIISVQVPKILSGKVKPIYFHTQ
Description: Antagonist activity against human androgen receptor in CV1 cells measured as inhibition of DHT-stimulated luciferase reporter gene activity by cotransfection assay

For test [2], the target named is T1, Androgen receptor. This is another data set of the same source.
Description: Displacement of [3H]DHT from human androgen receptor expressed in MDA-MB-453 cells by whole cell receptor binding assay
The target in test [3] is T1, Androgen receptor. This is another data set of the same source.
Description: Agonist activity at human androgen receptor in CV1 cells measured as stimulation of luciferase reporter gene activity by cotransfection assay
The target of test [4] is T2, Estrogen receptor (Homo sapiens, UniProt P03372).
T2 sequence (P03372 whole entry): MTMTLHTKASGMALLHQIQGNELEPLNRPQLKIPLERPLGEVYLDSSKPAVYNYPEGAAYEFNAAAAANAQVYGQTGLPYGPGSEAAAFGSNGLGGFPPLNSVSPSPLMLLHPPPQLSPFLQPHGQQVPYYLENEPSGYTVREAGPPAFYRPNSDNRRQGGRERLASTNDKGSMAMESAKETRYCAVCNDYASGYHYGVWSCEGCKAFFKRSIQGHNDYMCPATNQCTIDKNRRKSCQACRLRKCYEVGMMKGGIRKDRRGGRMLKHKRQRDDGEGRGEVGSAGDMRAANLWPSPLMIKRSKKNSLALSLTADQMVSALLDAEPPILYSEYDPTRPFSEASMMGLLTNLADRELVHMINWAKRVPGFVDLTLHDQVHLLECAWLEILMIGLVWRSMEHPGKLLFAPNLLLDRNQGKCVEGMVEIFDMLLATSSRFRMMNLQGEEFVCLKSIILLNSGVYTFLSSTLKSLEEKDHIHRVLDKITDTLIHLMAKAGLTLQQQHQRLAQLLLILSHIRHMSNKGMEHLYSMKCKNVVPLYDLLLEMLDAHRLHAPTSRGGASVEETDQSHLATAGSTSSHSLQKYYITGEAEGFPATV
Description: Binding affinity to estrogen receptor

Test [5] concerns the target T3, Progesterone receptor (Homo sapiens, UniProt P06401).
T3 sequence (P06401 whole entry): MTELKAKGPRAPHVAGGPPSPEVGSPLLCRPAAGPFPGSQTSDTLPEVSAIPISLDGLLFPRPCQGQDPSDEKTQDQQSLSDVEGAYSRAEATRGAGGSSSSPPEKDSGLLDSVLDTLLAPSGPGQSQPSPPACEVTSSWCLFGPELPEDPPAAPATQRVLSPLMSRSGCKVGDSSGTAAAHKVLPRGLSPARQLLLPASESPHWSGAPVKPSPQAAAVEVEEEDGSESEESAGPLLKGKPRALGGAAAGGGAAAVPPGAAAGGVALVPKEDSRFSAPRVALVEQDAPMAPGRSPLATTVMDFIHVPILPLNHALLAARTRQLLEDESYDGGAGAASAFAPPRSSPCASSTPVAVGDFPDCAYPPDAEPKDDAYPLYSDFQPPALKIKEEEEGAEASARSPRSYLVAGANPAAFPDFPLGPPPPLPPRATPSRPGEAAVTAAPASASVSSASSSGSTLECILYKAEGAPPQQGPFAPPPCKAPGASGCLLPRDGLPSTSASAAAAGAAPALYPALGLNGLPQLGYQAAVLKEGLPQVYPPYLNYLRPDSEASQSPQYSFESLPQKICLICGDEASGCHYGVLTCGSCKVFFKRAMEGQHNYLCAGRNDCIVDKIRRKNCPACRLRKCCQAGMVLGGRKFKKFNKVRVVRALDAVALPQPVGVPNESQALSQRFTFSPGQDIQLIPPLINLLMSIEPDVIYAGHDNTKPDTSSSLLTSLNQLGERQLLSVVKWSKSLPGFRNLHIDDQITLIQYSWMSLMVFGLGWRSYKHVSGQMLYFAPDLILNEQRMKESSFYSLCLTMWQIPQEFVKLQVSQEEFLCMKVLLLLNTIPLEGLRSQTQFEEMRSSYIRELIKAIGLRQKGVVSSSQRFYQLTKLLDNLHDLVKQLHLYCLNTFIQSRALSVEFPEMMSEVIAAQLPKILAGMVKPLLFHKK
Description: Binding affinity to progesterone receptor

Test [6] has as its system Rattus norvegicus. The test is described as follows: Androgenic activity in orchidectomized rat at 100 mg/kg, po measured as increase in ventral prostate weight to intact level. The following applies: Prostate gland. Set-up: dose 100 mg/kg. The test is classed as functional, organism-based.
Test [7] is filed under the species Rattus norvegicus. The test is described as follows: Anabolic activity in orchidectomized rat measured as increase in levator ani muscle weight relative to intact rat. The test is classed as functional.
Test [8] concerns the target T4, Mineralocorticoid receptor (Homo sapiens, UniProt P08235).
T4 sequence (P08235 whole entry): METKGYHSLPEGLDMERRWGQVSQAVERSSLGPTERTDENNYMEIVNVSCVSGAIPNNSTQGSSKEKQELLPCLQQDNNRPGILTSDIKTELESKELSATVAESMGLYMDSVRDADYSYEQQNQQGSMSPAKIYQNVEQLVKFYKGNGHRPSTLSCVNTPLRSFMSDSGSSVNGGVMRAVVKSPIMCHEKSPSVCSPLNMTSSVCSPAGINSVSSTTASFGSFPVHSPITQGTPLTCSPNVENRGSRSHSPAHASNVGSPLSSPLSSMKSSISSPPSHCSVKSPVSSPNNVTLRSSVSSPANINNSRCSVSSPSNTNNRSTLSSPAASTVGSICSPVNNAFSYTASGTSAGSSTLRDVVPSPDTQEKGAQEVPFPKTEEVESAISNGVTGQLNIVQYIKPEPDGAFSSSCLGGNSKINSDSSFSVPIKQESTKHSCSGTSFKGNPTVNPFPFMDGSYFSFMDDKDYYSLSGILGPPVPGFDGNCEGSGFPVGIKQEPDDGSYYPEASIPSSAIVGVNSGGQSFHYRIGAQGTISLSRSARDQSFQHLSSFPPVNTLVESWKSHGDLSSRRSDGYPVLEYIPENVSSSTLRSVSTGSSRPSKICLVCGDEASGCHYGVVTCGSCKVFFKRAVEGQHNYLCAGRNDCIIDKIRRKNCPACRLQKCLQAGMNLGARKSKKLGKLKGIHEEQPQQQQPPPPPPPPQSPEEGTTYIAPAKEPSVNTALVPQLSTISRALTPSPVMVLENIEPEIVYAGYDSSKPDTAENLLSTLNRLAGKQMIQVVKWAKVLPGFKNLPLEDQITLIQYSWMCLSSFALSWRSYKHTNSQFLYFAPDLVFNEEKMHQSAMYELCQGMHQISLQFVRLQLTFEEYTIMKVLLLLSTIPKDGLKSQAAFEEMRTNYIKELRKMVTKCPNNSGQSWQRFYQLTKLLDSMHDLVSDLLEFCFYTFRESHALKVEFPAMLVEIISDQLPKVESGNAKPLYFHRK
Kind of test: Binding affinity to mineralocorticoid receptor.

Test [9] has as its system Rattus norvegicus. The test is described as follows: Anabolic activity in orchidectomized rat at 3.0 mg/kg, po measured as increase in levator ani muscle weight to eugonadal level. The test is classed as functional, organism-based. On the set-up: dose 3 mg/kg.
The target in test [10] is T5, Glucocorticoid receptor (Homo sapiens, UniProt P04150).
T5 sequence (P04150 whole entry): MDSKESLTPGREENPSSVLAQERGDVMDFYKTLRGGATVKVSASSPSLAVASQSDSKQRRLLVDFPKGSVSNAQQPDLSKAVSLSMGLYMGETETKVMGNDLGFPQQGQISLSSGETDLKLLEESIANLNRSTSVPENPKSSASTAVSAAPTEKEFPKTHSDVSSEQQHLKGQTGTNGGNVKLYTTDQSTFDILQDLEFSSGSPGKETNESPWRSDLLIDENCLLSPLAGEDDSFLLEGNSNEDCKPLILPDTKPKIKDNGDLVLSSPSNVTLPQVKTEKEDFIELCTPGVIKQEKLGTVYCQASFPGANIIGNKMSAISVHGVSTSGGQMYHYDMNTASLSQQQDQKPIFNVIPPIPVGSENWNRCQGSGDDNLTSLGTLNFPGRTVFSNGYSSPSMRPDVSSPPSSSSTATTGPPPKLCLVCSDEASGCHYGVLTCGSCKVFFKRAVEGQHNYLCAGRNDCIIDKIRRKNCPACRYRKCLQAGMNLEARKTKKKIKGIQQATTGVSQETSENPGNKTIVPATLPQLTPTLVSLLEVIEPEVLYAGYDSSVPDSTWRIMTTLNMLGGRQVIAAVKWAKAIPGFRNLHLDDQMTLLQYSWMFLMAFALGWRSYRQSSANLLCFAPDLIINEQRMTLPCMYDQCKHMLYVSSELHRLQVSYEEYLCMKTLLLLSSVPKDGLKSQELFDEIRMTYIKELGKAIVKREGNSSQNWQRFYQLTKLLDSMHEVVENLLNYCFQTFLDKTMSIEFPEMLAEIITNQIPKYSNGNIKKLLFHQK
Kind of test: Binding affinity to glucocorticoid receptor.

The test system of test [11] is Rattus norvegicus. The test is described as follows: Androgenic activity in orchidectomized rat at 2.0 mg/kg, sc measured as increase in ventral prostate weight to eugonadal level. The test is classed as functional, organism-based. Set-up: dose 2 mg/kg. Conditions: Prostate gland.
Test [12] has as its system Rattus norvegicus. Kind of test: Anabolic activity in orchidectomized rat at 2.0 mg/kg, sc measured as increase in levator ani muscle weight to eugonadal level. The test is classed as functional, organism-based. On the set-up: dose 2 mg/kg.

The source made the active and inactive calls. No cut-off for these calls is given here.

A word on the IC50: it is the concentration needed to halve the response being measured. Usually Ki stands for a measure of affinity in units of concentration, obtained from inhibition or displacement. Higher therefore signals weaker binding. For orientation: EC50 means the concentration giving half of the maximal effect. In test [1], `Oc1cc(C(F)(F)F)c2cc(N(CC3CC3)CC(F)(F)F)ccc2n1` displayed an IC50 above 10 µM. In test [2], this molecule returned an inhibition constant (Ki) of 0.0071 µM. This molecule showed an EC50 in test [3] of 0.0028 µM.
As to `O=c1cc(C(F)(F)F)c2cc(N(CC(F)(F)F)CC(F)(F)F)ccc2[nH]1`, the Ki in test [4], in test [5], in test [8] and in [10] was above 1 µM throughout. Besides, the outcome in test [6] and in test [9] was Active. Besides, the Activity in test [7] is reported as 150%.
Consider `C[C@]12CC[C@H]3[C@@H](CCC4=CC(=O)CC[C@@]43C)[C@@H]1CC[C@@H]2O`, for which the result in test [11] and in test [12] was Active.
